Tested on: HUVEC/MSC spheroids viability
Test: Human HUVEC/MSC cell line growth inhibition [KRAS2];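 on viability, T/C: percent of DMSO vehicle control luminescence so 100% = untreated viability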
Conditions: for IC50: curve of first compound; for viability, T/C: stronger effect = lower value
Summary of the method: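 Stroma-only multicellular spheroids, formed from HUVEC and human MSCs at passages </=5, received RAS-pathway inhibitors with or without a second targeted drug. Dosing followed half-log dilutions from clinically achievable levels.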

[1] = second compound 0.0316 µM, first compound 0.0316 µM
[2] = second compound 0.0316 µM, first compound 0.1 µM
[3] = second compound 0.0316 µM, first compound 0.316 µM
[4] = second compound 0.0316 µM, first compound 1 µM
[5] = second compound 0.0316 µM, first compound 3.16 µM
[6] = second compound 0.0316 µM, first compound 10 µM
[7] = second compound 0.1 µM, first compound 0.0316 µM
[8] = second compound 0.1 µM, first compound 0.1 µM
[9] = second compound 0.1 µM, first compound 0.316 µM
[10] = second compound 0.1 µM, first compound 1 µM
[11] = second compound 0.1 µM, first compound 3.16 µM
[12] = second compound 0.1 µM, first compound 10 µM
[13] = second compound 0.316 µM, first compound 0.0316 µM
[14] = second compound 0.316 µM, first compound 0.1 µM
[15] = second compound 0.316 µM, first compound 0.316 µM
[16] = second compound 0.316 µM, first compound 1 µM
[17] = second compound 0.316 µM, first compound 3.16 µM
[18] = second compound 0.316 µM, first compound 10 µM
[19] = second compound 1 µM, first compound 0.0316 µM
[20] = second compound 1 µM, first compound 0.1 µM
[21] = second compound 1 µM, first compound 0.316 µM
[22] = second compound 1 µM, first compound 1 µM
[23] = second compound 1 µM, first compound 3.16 µM
[24] = second compound 1 µM, first compound 10 µM
[25] = second compound 3.16 µM, first compound 0.0316 µM
[26] = second compound 3.16 µM, first compound 0.1 µM
[27] = second compound 3.16 µM, first compound 0.316 µM
[28] = second compound 3.16 µM, first compound 1 µM
[29] = second compound 3.16 µM, first compound 3.16 µM
[30] = second compound 3.16 µM, first compound 10 µM
[31] = second compound 10 µM, first compound 0.0316 µM
[32] = second compound 10 µM, first compound 0.1 µM
[33] = second compound 10 µM, first compound 0.316 µM
[34] = second compound 10 µM, first compound 1 µM
[35] = second compound 10 µM, first compound 3.16 µM
[36] = second compound 10 µM, first compound 10 µM

## CC(=O)Nc1cccc(-n2c(=O)n(C3CC3)c(=O)c3c(Nc4ccc(I)cc4F)n(C)c(=O)c(C)c32)c1 + CNCc1ccccc1-c1csc(C(C)Nc2nc(C)nc3cc(OC)c(OC)cc23)c1
Second compound 0.0316 µM
  IC50: 0.0125 µM
Second compound 0.1 µM
  IC50: 0.0121 µM
Second compound 0.316 µM
  IC50: 0.0132 µM
Second compound 1 µM
  IC50: 0.0131 µM
Second compound 3.16 µM
  IC50: 0.0132 µM
Second compound 10 µM
  IC50: < 9.49e-05 µM
Second compound 0.0316 µM, first compound 94.9 pM
  viability, T/C: 101%
Second compound 0.0316 µM, first compound 0.0003 µM
  viability, T/C: 130%
Second compound 0.0316 µM, first compound 0.000949 µM
  viability, T/C: 113%
Second compound 0.0316 µM, first compound 0.003 µM
  viability, T/C: 83.6%
Second compound 0.0316 µM, first compound 0.00949 µM
  viability, T/C: 66.7%
Second compound 0.0316 µM, first compound 0.03 µM
  viability, T/C: 9.37%
Second compound 0.1 µM, first compound 94.9 pM
  viability, T/C: 102%
Second compound 0.1 µM, first compound 0.0003 µM
  viability, T/C: 109%
Second compound 0.1 µM, first compound 0.000949 µM
  viability, T/C: 95.5%
Second compound 0.1 µM, first compound 0.003 µM
  viability, T/C: 75.7%
Second compound 0.1 µM, first compound 0.00949 µM
  viability, T/C: 67%
Second compound 0.1 µM, first compound 0.03 µM
  viability, T/C: 9.94%
Second compound 0.316 µM, first compound 94.9 pM
  viability, T/C: 93.6%
Second compound 0.316 µM, first compound 0.0003 µM
  viability, T/C: 99.6%
Second compound 0.316 µM, first compound 0.000949 µM
  viability, T/C: 101%
Second compound 0.316 µM, first compound 0.003 µM
  viability, T/C: 85.9%
Second compound 0.316 µM, first compound 0.00949 µM
  viability, T/C: 65.4%
Second compound 0.316 µM, first compound 0.03 µM
  viability, T/C: 13.4%
Second compound 1 µM, first compound 94.9 pM
  viability, T/C: 86.5%
Second compound 1 µM, first compound 0.0003 µM
  viability, T/C: 103%
Second compound 1 µM, first compound 0.000949 µM
  viability, T/C: 92.2%
Second compound 1 µM, first compound 0.003 µM
  viability, T/C: 84.6%
Second compound 1 µM, first compound 0.00949 µM
  viability, T/C: 67.2%
Second compound 1 µM, first compound 0.03 µM
  viability, T/C: 7.22%
Second compound 3.16 µM, first compound 94.9 pM
  viability, T/C: 84.5%
Second compound 3.16 µM, first compound 0.0003 µM
  viability, T/C: 132%
Second compound 3.16 µM, first compound 0.000949 µM
  viability, T/C: 103%
Second compound 3.16 µM, first compound 0.003 µM
  viability, T/C: 103%
Second compound 3.16 µM, first compound 0.00949 µM
  viability, T/C: 70.2%
Second compound 3.16 µM, first compound 0.03 µM
  viability, T/C: 0.49%
Second compound 10 µM, first compound 94.9 pM
  viability, T/C: 0.38%
Second compound 10 µM, first compound 0.0003 µM
  viability, T/C: 0.41%
Second compound 10 µM, first compound 0.000949 µM
  viability, T/C: 0.37%
Second compound 10 µM, first compound 0.003 µM
  viability, T/C: 0.33%
Second compound 10 µM, first compound 0.00949 µM
  viability, T/C: 0.36%
Second compound 10 µM, first compound 0.03 µM
  viability, T/C: 0.28%

## COc1cc(Nc2ncc3c(n2)-c2ccc(Cl)cc2C(c2c(F)cccc2OC)=NC3)ccc1C(=O)O + CNCc1ccccc1-c1csc(C(C)Nc2nc(C)nc3cc(OC)c(OC)cc23)c1
Second compound 0.0316 µM
  IC50: 9.93 µM
Second compound 0.1 µM
  IC50: > 10 µM
Second compound 0.316 µM
  IC50: 8.79 µM
Second compound 1 µM
  IC50: 9.31 µM
Second compound 3.16 µM
  IC50: > 10 µM
Second compound 10 µM
  IC50: < 0.0316 µM
[1]
  viability, T/C: 92.9%
[2]
  viability, T/C: 104%
[3]
  viability, T/C: 101%
[4]
  viability, T/C: 87.3%
[5]
  viability, T/C: 84.6%
[6]
  viability, T/C: 49.2%
[7]
  viability, T/C: 93.2%
[8]
  viability, T/C: 80.8%
[9]
  viability, T/C: 98%
[10]
  viability, T/C: 80.3%
[11]
  viability, T/C: 84%
[12]
  viability, T/C: 56.7%
[13]
  viability, T/C: 71.1%
[14]
  viability, T/C: 90.8%
[15]
  viability, T/C: 79.5%
[16]
  viability, T/C: 73.3%
[17]
  viability, T/C: 83.7%
[18]
  viability, T/C: 46.3%
[19]
  viability, T/C: 75.5%
[20]
  viability, T/C: 76.6%
[21]
  viability, T/C: 97.3%
[22]
  viability, T/C: 74.5%
[23]
  viability, T/C: 92.4%
[24]
  viability, T/C: 47.8%
[25]
  viability, T/C: 101%
[26]
  viability, T/C: 106%
[27]
  viability, T/C: 97.8%
[28]
  viability, T/C: 90.4%
[29]
  viability, T/C: 100%
[30]
  viability, T/C: 50.7%
[31]
  viability, T/C: 0.4%
[32]
  viability, T/C: 0.4%
[33]
  viability, T/C: 0.37%
[34]
  viability, T/C: 0.36%
[35]
  viability, T/C: 0.41%
[36]
  viability, T/C: 0.32%

## COc1cc2nccc(Oc3ccc(NC(=O)C4(C(=O)Nc5ccc(F)cc5)CC4)cc3)c2cc1OC + CNCc1ccccc1-c1csc(C(C)Nc2nc(C)nc3cc(OC)c(OC)cc23)c1
Second compound 0.0316 µM
  IC50: 5.9 µM
Second compound 0.1 µM
  IC50: 5.67 µM
Second compound 0.316 µM
  IC50: 6.1 µM
Second compound 1 µM
  IC50: 4.98 µM
Second compound 3.16 µM
  IC50: 1.84 µM
Second compound 10 µM
  IC50: < 0.0316 µM
[1]
  viability, T/C: 87.7%
[2]
  viability, T/C: 86.5%
[3]
  viability, T/C: 78.2%
[4]
  viability, T/C: 65.8%
[5]
  viability, T/C: 84.2%
[6]
  viability, T/C: 24.3%
[7]
  viability, T/C: 67%
[8]
  viability, T/C: 88.8%
[9]
  viability, T/C: 87%
[10]
  viability, T/C: 81%
[11]
  viability, T/C: 78.2%
[12]
  viability, T/C: 22.7%
[13]
  viability, T/C: 86.6%
[14]
  viability, T/C: 90.9%
[15]
  viability, T/C: 72%
[16]
  viability, T/C: 71.2%
[17]
  viability, T/C: 81.4%
[18]
  viability, T/C: 27.1%
[19]
  viability, T/C: 69.6%
[20]
  viability, T/C: 67.3%
[21]
  viability, T/C: 66.6%
[22]
  viability, T/C: 97.6%
[23]
  viability, T/C: 99.7%
[24]
  viability, T/C: 3.5%
[25]
  viability, T/C: 96.7%
[26]
  viability, T/C: 104%
[27]
  viability, T/C: 108%
[28]
  viability, T/C: 115%
[29]
  viability, T/C: 0.31%
[30]
  viability, T/C: 0.22%
[31]
  viability, T/C: 0.36%
[32]
  viability, T/C: 0.41%
[33]
  viability, T/C: 0.99%
[34]
  viability, T/C: 0.46%
[35]
  viability, T/C: 0.43%
[36]
  viability, T/C: 0.25%
